Assay results reported in paper PMC12722920, “Pharmacokinetics and pharmacodynamics of cannabigerol (CBG) in the C57BL/6Crl mouse” (Frontiers in Pharmacology, 2025).
Like-named read-outs stand apart in the source and are kept apart here.

What was measured:
[1] = Phase II blood concentration 10 min after i.v. administration (HPLC-MS/MS)
[2] = parameters: method as in Deiana et al., 2012; conditions: ref Deiana et al., 2012, cited from earlier work
[3] = Phase I pharmacokinetic profile: blood concentration vs time by HPLC-MS/MS after a single 10 mg/kg dose; assay type: in vivo, C57BL/6Crl mice; conditions: for k (terminal phase rate constant): noncompartmental
Protocol: In phase I, male mice were randomly assigned to Groups A, B, C, or D. Interventions per group are specified in Figure 2. Each group was divided into 3 cohorts and randomly assigned to receive p.o., i.p., or i.v. administration. Oral (p.o.) administration cohorts received 10 mg/kg CBG in olive oil with 10% DMSO, and i.p. and i.v. cohorts received 10 mg/kg CBG with 10% DMSO and vehicle (1:1:18 ethanol: kolliphor: saline). PK profiles were developed for blood collection at 10 min, 30 min, 1 h, 3 h, 6 h, 12 h, 18 h, and 24 h. Blood collection was performed using a destructive sampling method, with each mouse providing blood at two time point collections. The initial blood draw aimed to obtain a 100 µL blood sample from the left leg lateral saphenous vein of the mouse, and the second blood draw from the same mouse involved the administration of isoflurane (3%–5%) followed by exsanguination via cardiac puncture. Group A was subjected to two time point blood draws, at 10 min and at 30 min. Groups B-D were first subjected to the cannabinoid-induced tetrad assay, then two time point blood draws. Due to time constraints, the open field test (OFT) was not performed in Phase I.
Blood collection from the saphenous leg vein was drawn into a RAM Scientific Safe-T-Fill™ Capillary blood collection system containing heparin and lithium (Waltham, Massachusetts, U.S). Blood collection from the cardiac puncture was drawn into a syringe and transferred to a 2 mL blood collection tube containing heparin and lithium. Samples were immediately placed on ice, transferred to LoBind® tubes as quickly as possible, and then stored at −80 °C. The blood concentrations of CBG were determined using High-Performance Liquid Chromatography-Tandem Mass Spectrometry (HPLC-MS/MS).
The PK parameters for CBG were determined by GraphPad Prism (v. 10.2.3). Linear regression analysis natural log of the concentration versus time curve was utilized to derive the terminal phase rate constant (k), from which the terminal phase half-life (t1/2) was calculated using the ratio (0.693/k). For both p.o. and i.p. administration, the Cmax was obtained directly from visual inspection of the blood concentration versus time profiles. For the purposes of this study, Tmax refers to the time at which Cmax was reported. The log-linear trapezoidal method was used to calculate the total area under the curve (AUC) of the average blood concentrations versus time profile with extrapolation to infinity, where the tail of the AUC (i.e., last concentration extrapolated to infinity) was calculated as the ratio Cp,last/k. Bioavailability was estimated by dividing the mean total AUC∞ for each route of administration by the total AUC observed for each compound following i.v. administration (where F = 100%, by definition). Systemic clearance (ClS) was calculated as the ratio Dose i.v. /AUC ∞ . The apparent volume of distribution (Vd) was calculated as Dose i.v. /(k × AUC ∞ ).
HPLC-MS/MS was used to quantify CBG in the blood using a 1,260 Agilent (Agilent Technologies Canada, Mississauga, ON) High Performance Liquid Chromatography (HPLC) system connected to an AB Sciex 4,000 Hybrid Triple Quadruple Linear Ion Trap Mass Spectrometer (QTRAP) equipped with a Turboionspray™ interface (AB Sciex, Concord, ON). The analytical method was developed and validated for mouse blood. An Infinity lab Phenyl Hexyl column (4.6 × 12.5 mm, 5 μm) and guard column (4.6 × 12.5 mm, 5 μm) were used to separate compounds, and the temperature was set to 50 °C.

C57BL/6Crl mice = assay: Cannabinoid tetrad: catalepsy in the ring holding assay; assay type: in vivo; conditions: for ED50: Mus musculus, iv
male mice = tested on: male mice; parameters: method as in Zagzoog et al., 2020; conditions: i.p., 15 min post-injection; ref Zagzoog et al., 2020; cited from earlier work
[4] = 10 mg/kg i.v., male mice, blood
[5] = C57BL/6Crl, mouse, whole blood, ip, 10 mg/kg i.p., male mice, blood
[6] = C57BL/6Crl, mouse, whole blood, iv, 10 mg/kg i.v., male mice, blood
[7] = C57BL/6Crl, mouse, whole blood, po, 10 mg/kg p.o., male mice, blood

## CCCCCc1cc(O)c(C/C=C(\C)CCC=C(C)C)c(O)c1 [CBG, cannabigerol]
[1]; 10 mg/kg i.v., higher than THC
  mean blood concentration of CBG relative to THC: approximately 5 times
[1]; both, C57BL/6Crl, mouse, whole blood, intravenous, 10 mg/kg
  concentration at 10 min: 2.7 µg/mL
[2]; i.p.
  time to peak plasma concentration (Tmax): 2 h
[2]; p.o.
  time to peak plasma concentration (Tmax): 0.5 h
[3]; 10 mg/kg CBG, male mice
  p.o. Cmax as percent of i.p. Cmax: 2%
[3]; 10 mg/kg i.p., male mice, blood
  k (terminal phase rate constant): 0.069 h⁻¹
[3]; [4]
  α: 1.016 h⁻¹
  k (terminal phase rate constant): 0.0698 h⁻¹
[3]; [5]
  AUC(0-inf): 1.17 µg·h/mL
  Cmax: 0.516 µg/mL
  Tmax: 0.5 h
  half-life: 10 h
[3]; [6]
  AUC(0-inf): 2.8 µg·h/mL
  half-life: 9.9 h
[3]; C57BL/6Crl, mouse, whole blood, iv, 10 mg/kg i.v., male mice, read-out: ClS (systemic clearance)
  clearance: 3.57 L/h/kg
[3]; C57BL/6Crl, mouse, whole blood, iv, 10 mg/kg i.v., male mice, read-out: Vd (apparent volume of distribution)
  Vd: 51.1 L/kg
[3]; [7]
  Cmax: 0.0105 µg/mL
  Tmax: 3 h
[3]; male, C57BL/6Crl, mouse, whole blood, iv, 10 mg/kg, i.v., males, read-out: C at 10 min (blood concentration 10 min post-administration)
  concentration at 10 min: 2.84 µg/mL
C57BL/6Crl mice; 10 mg/kg i.p., 20 min post-injection, male and female mice, MPE = 60 s
  catalepsy, mean % MPE: 5.4% ± 2.5%
C57BL/6Crl mice; 10 mg/kg i.v., i.p. and p.o., male mice, 5 min post-injection
  cataleptic response: did not produce a cataleptic response
C57BL/6Crl mice; 1, 3, 10 or 30 mg/kg i.v., male and female mice
  catalepsy, dose-response: produced a modest effect but only at the highest dose tested, 30 mg/kg
C57BL/6Crl mice; 5 min, i.v., both sexes, 5 min post-administration, read-out: ED50 catalepsy
  ED50: > 30 mg/kg
C57BL/6Crl mice; both sexes, three-parameter nonlinear regression, read-out: ED50 catalepsy, estimate exceeding the dose range (square brackets)
  ED50: > 30 mg/kg
C57BL/6Crl mice; males, read-out: ED50 catalepsy
  ED50: > 30 mg/kg
C57BL/6Crl mice; THC potency/CBG potency corrected for blood concentration at 10 min, both sexes
  Intoxication ratio, catalepsy: 0.23
C57BL/6Crl mice; accounting for blood concentrations measured at 10 min, i.v.
  intoxication relative to THC, catalepsy: 23%
C57BL/6Crl mice; females
  Intoxication ratio, catalepsy: 0.28
C57BL/6Crl mice; i.v., females
  ED50 catalepsy: > 30 mg/kg
C57BL/6Crl mice; males
  Intoxication ratio, catalepsy: 0.17
Male mice
  anti-nociceptive effect: evoked an anti-nociceptive effect
